ChEMBL document CHEMBL1127385, “Synthesis and diuretic activity of alkyl- and arylguanidine analogs of N,N'-dicyclohexyl-4-morpholinecarboxamidine in rats and dogs” (J Med Chem, 1994)

Tests used:
[1] = species: Canis familiaris; assay: Systemic cardio vascular Hemodynamics of stroke index was measured in Beagle dogs in pretreatment control group; format: functional, Canis lupus familiaris, Heart
[2] = species: Canis familiaris; assay: Systemic cardio vascular Hemodynamics of cardiac index was measured in Beagle dogs in pretreatment control group; format: functional, Canis lupus familiaris, Heart
[3] = species: Canis familiaris; assay: Tissue vascular resistance of left ventricle was measured in Beagle dogs before treatment after giving the dose of MNX plus the drug; format: functional, Canis lupus familiaris, Heart left ventricle
[4] = test system: Canis familiaris; assay: Total electrolytic excretion of potassium in urine of dogs after intravenous administration of 3.03 uM/Kg of drug; format: ADME, organism-based, Canis lupus familiaris; settings: dog, in vivo
[5] = test system: Rattus norvegicus; assay: Total electrolytic excretion of potassium in urine of rats after peroral administration of 50.8 uM/Kg of drug; format: ADME, organism-based; settings: in vivo, po
[6] = test system: Rattus norvegicus; assay: Tested for the diuretic activity by measuring the urinary volume after peroral administering 341 uM/Kg of drug in rats; format: ADME, organism-based, Urine; settings: in vivo, po
[7] = species: Canis familiaris; assay: Systemic cardio vascular Hemodynamics of heart rate was measured in Beagle dogs in pretreatment control group; format: functional, Canis lupus familiaris
[8] = test system: Rattus norvegicus; assay: Total electrolytic excretion of potassium in urine of rats after peroral administration of 68.1 uM/Kg of drug; format: ADME, organism-based; settings: in vivo, po
[9] = species: Canis familiaris; assay: Systemic cardio vascular Hemodynamics of total peripheral resistance was measured in Beagle dogs after giving the dose of MNX; format: functional, Canis lupus familiaris, Heart
[10] = species: Canis familiaris; assay: Systemic cardio vascular Hemodynamics of cardiac index was measured in Beagle dogs after giving the dose of MNX plus the drug; format: functional, Canis lupus familiaris, Heart
[11] = test system: Canis familiaris; assay: Tested for the diuretic activity by measuring the urinary volume after intravenous administering 34.1 uM/Kg of drug in dogs; format: ADME, organism-based, Canis lupus familiaris, Urine; settings: dog, in vivo
[12] = test system: Rattus norvegicus; assay: Tested for the diuretic activity by measuring the urinary volume after peroral administering 102 uM/Kg of drug in rats; format: ADME, organism-based, Urine; settings: in vivo, po
[13] = test system: Canis familiaris; assay: Total electrolytic excretion of chlorine in urine of dogs after intravenous administration of 30.3 uM/Kg of drug; format: ADME, organism-based, Canis lupus familiaris; settings: dog, in vivo
[14] = species: Canis familiaris; assay: Systemic cardio vascular Hemodynamics of total peripheral resistance was measured in Beagle dogs in pretreatment control group; format: functional, Canis lupus familiaris, Heart
[15] = species: Canis familiaris; assay: Tissue vascular resistance of left ventricle was measured in Beagle dogs before treatment; format: functional, Canis lupus familiaris, Heart left ventricle
[16] = test system: Canis familiaris; assay: Total electrolytic excretion of potassium in urine of dogs after intravenous administration of 9.09 uM/Kg of drug; format: ADME, organism-based, Canis lupus familiaris; settings: dog, in vivo
[17] = species: Canis familiaris; assay: Tissue vascular resistance of pancreas was measured in Beagle dogs after giving the dose of MNX plus the drug; format: functional, Canis lupus familiaris
[18] = test system: Canis familiaris; assay: Total electrolytic excretion of chlorine in urine of dogs after peroral administration of 102 uM/Kg of drug; format: ADME, organism-based, Canis lupus familiaris; settings: dog, in vivo, po
[19] = species: Canis familiaris; assay: Tissue vascular resistance of large intestine was measured in Beagle dogs after giving the dose of MNX; format: functional, Canis lupus familiaris
[20] = test system: Canis familiaris; assay: Total electrolytic excretion of sodium in urine of dogs after intravenous administration of 9.09 uM/Kg of drug; format: ADME, organism-based, Canis lupus familiaris; settings: dog, in vivo
[21] = species: Canis familiaris; assay: Systemic cardio vascular Hemodynamics of stroke index was measured in Beagle dogs after giving the dose of MNX plus the drug; format: functional, Canis lupus familiaris, Heart
[22] = species: Canis familiaris; assay: Systemic cardio vascular Hemodynamics of heart rate was measured in Beagle dogs after giving the dose of MNX; format: functional, Canis lupus familiaris
[23] = species: Canis familiaris; assay: Systemic cardio vascular Hemodynamics of total peripheral resistance was measured in Beagle dogs after giving the dose of MNX plus the drug; format: functional, Canis lupus familiaris, Heart
[24] = test system: Canis familiaris; assay: Total electrolytic excretion of chlorine in urine of dogs after intravenous administration of 34.1 uM/Kg of drug; format: ADME, organism-based, Canis lupus familiaris; settings: dog, in vivo
[25] = species: Canis familiaris; assay: Systemic cardio vascular Hemodynamics of mean arterial pressure was measured in Beagle dogs in pretreatment control group; format: functional, Canis lupus familiaris, Heart
[26] = test system: Rattus norvegicus; assay: Ratio of Total electrolytic excretion of sodium and potassium in urine of rats after peroral administration of 68.1 uM/Kg of drug; format: ADME, organism-based; settings: in vivo, po
[27] = species: Canis familiaris; assay: Tissue vascular resistance of large intestine was measured in Beagle dogs after giving the dose of MNX plus the drug; format: functional, Canis lupus familiaris
[28] = test system: Rattus norvegicus; assay: Total electrolytic excretion of sodium in urine of rats after peroral administration of 102 uM/Kg of drug; format: ADME, organism-based; settings: in vivo, po
[29] = species: Canis familiaris; assay: Tissue vascular resistance of right atrium was measured in Beagle dogs before treatment; format: functional, Canis lupus familiaris, Cardiac atrium
[30] = test system: Canis familiaris; assay: Total electrolytic excretion of sodium in urine of dogs after intravenous administration of 3.03 uM/Kg of drug; format: ADME, organism-based, Canis lupus familiaris; settings: dog, in vivo
[31] = species: Canis familiaris; assay: Systemic cardio vascular Hemodynamics of mean arterial pressure was measured in Beagle dogs after giving the dose of MNX plus the drug; format: functional, Canis lupus familiaris, Heart
[32] = test system: Canis familiaris; assay: Total electrolytic excretion of sodium in urine of dogs after peroral administration of 34.1 uM/Kg of drug; format: ADME, organism-based, Canis lupus familiaris; settings: dog, in vivo, po
[33] = species: Canis familiaris; assay: Tissue vascular resistance of pancreas was measured in Beagle dogs before treatment; format: functional, Canis lupus familiaris
[34] = species: Canis familiaris; assay: Tissue vascular resistance of right atrium was measured in Beagle dogs after giving the dose of MNX; format: functional, Canis lupus familiaris, Cardiac atrium
[35] = test system: Canis familiaris; assay: Tested for the diuretic activity by measuring the urinary volume after peroral administering 50.8 uM/Kg of drug in dogs; format: ADME, organism-based, Canis lupus familiaris, Urine; settings: dog, in vivo, po
[36] = test system: Canis familiaris; assay: Tested for the diuretic activity by measuring the urinary volume after peroral administering 68.1 uM/Kg of drug in dogs; format: ADME, organism-based, Canis lupus familiaris, Urine; settings: dog, in vivo, po
[37] = test system: Rattus norvegicus; assay: Ratio of Total electrolytic excretion of sodium and potassium in urine of rats after intravenous administration of 34.1 uM/Kg of drug; format: ADME, organism-based; settings: in vivo
[38] = species: Canis familiaris; assay: Tissue vascular resistance of left ventricle was measured in Beagle dogs after giving the dose of MNX; format: functional, Canis lupus familiaris, Heart left ventricle
[39] = test system: Rattus norvegicus; assay: Ratio of Total electrolytic excretion of sodium and potassium in urine of rats after intravenous administration of 9.09 uM/Kg of drug; format: ADME, organism-based; settings: in vivo
[40] = test system: Canis familiaris; assay: Tested for the diuretic activity by measuring the urinary volume after intravenous administering 3.03 uM/Kg of drug in dogs; format: ADME, organism-based, Canis lupus familiaris, Urine; settings: dog, in vivo
[41] = test system: Canis familiaris; assay: Total electrolytic excretion of chlorine in urine of dogs after peroral administration of 68.1 uM/Kg of drug; format: ADME, organism-based, Canis lupus familiaris; settings: dog, in vivo, po
[42] = species: Canis familiaris; assay: Tissue vascular resistance of pancreas was measured in Beagle dogs after giving the dose of MNX; format: functional, Canis lupus familiaris
[43] = test system: Canis familiaris; assay: Tested for the diuretic activity by measuring the urinary volume after peroral administering 34.1 uM/Kg of drug in dogs; format: ADME, organism-based, Canis lupus familiaris, Urine; settings: dog, in vivo, po
[44] = species: Canis familiaris; assay: Systemic cardio vascular Hemodynamics of stroke index was measured in Beagle dogs after giving the dose of MNX; format: functional, Canis lupus familiaris, Heart
[45] = test system: Canis familiaris; assay: Tested for the diuretic activity by measuring the urinary volume after intravenous administering 9.09 uM/Kg of drug in dogs; format: ADME, organism-based, Canis lupus familiaris, Urine; settings: dog, in vivo
[46] = test system: Rattus norvegicus; assay: Ratio of Total electrolytic excretion of sodium and potassium in urine of rats after intravenous administration of 3.03 uM/Kg of drug; format: ADME, organism-based; settings: in vivo
[47] = test system: Canis familiaris; assay: Total electrolytic excretion of potassium in urine of dogs after intravenous administration of 34.1 uM/Kg of drug; format: ADME, organism-based, Canis lupus familiaris; settings: dog, in vivo
[48] = test system: Rattus norvegicus; assay: Total electrolytic excretion of potassium in urine of rats after peroral administration of 341 uM/Kg of drug; format: ADME, organism-based; settings: in vivo, po
[49] = species: Canis familiaris; assay: Systemic cardio vascular Hemodynamics of mean arterial pressure was measured in Beagle dogs after giving the dose of MNX; format: functional, Canis lupus familiaris, Heart
[50] = test system: Rattus norvegicus; assay: Tested for the diuretic activity by measuring the urinary volume after peroral administering 34.1 uM/Kg of drug in rats; format: ADME, organism-based, Urine; settings: in vivo, po
[51] = test system: Canis familiaris; assay: Total electrolytic excretion of chlorine in urine of dogs after intravenous administration of 9.09 uM/Kg of drug; format: ADME, organism-based, Canis lupus familiaris; settings: dog, in vivo
[52] = test system: Canis familiaris; assay: Total electrolytic excretion of sodium in urine of dogs after intravenous administration of 34.1 uM/Kg of drug; format: ADME, organism-based, Canis lupus familiaris; settings: dog, in vivo
[53] = species: Canis familiaris; assay: Tissue vascular resistance of large intestine was measured in Beagle dogs before treatment; format: functional, Canis lupus familiaris
[54] = species: Canis familiaris; assay: Tissue vascular resistance of right atrium was measured in Beagle dogs after giving the dose of MNX plus the drug; format: functional, Canis lupus familiaris, Cardiac atrium
[55] = test system: Canis familiaris; assay: Total electrolytic excretion of potassium in urine of dogs after intravenous administration of 30.3 uM/Kg of drug; format: ADME, organism-based, Canis lupus familiaris; settings: dog, in vivo

Excretion K+ [4]: 1.2 m equiv
Excretion K+ [5]: 1.9 m equiv
V [6]: 10.2 mL
Excretion K+ [8]: 2 m equiv
V [11]: 132 mL
V [12]: 10 mL
Excretion Cl- [13]: 12.5 m equiv
Excretion K+ [16]: 1.7 m equiv
Excretion Cl- [18]: 19.6 m equiv
Excretion Na+ [20]: 11.5 m equiv
Excretion Cl- [24]: 16.4 m equiv
Ratio [26]: 8.6
Excretion Na+ [28]: 1.56 m equiv
Excretion Na+ [30]: 8.1 m equiv
Excretion Na+ [32]: 9.9 m equiv
V [35]: 62 mL
V [36]: 91 mL
Ratio [37]: 17.4
Ratio [39]: 8.7
V [40]: 64 mL
Excretion Cl- [41]: 12.3 m equiv
V [43]: 77 mL
V [45]: 87 mL
Ratio [46]: 8.4
Excretion K+ [47]: 1.3 m equiv
Excretion K+ [48]: 0.34 m equiv
V [50]: 6.6 mL
Excretion Cl- [51]: 9.6 m equiv
Excretion Na+ [52]: 18.6 m equiv
Excretion K+ [55]: 1.6 m equiv
Compound: C1CCC(N=C(NC2CCCCC2)N2CCOCC2)CC1
SI [1]: 2.2 ml beat-1 kg-1
CI [2]: 186 mL/min/kg
TVR [3]: 100 mmHg·min·g/mL
HR [7]: 87 beats min-1
TPR [9]: 0.3 mmHg·min·kg/mL
CI [10]: 138 mL/min/kg
TPR [14]: 0.56 mmHg·min·kg/mL
TVR [15]: 112 mmHg·min·g/mL
TVR [17]: 219 mmHg·min·g/mL
TVR [19]: 116 mmHg·min·g/mL
SI [21]: 1.1 ml beat-1 kg-1
HR [22]: 138 beats min-1
TPR [23]: 0.91 mmHg·min·kg/mL
MAP [25]: 101 mmHg
TVR [27]: 340 mmHg·min·g/mL
TVR [29]: 635 mmHg·min·g/mL
MAP [31]: 118 mmHg
TVR [33]: 118 mmHg·min·g/mL
TVR [34]: 37 mmHg·min·g/mL
TVR [38]: 10 mmHg·min·g/mL
TVR [42]: 43 mmHg·min·g/mL
SI [44]: 1.9 ml beat-1 kg-1
MAP [49]: 75 mmHg
TVR [53]: 264 mmHg·min·g/mL
TVR [54]: 573 mmHg·min·g/mL
